{
  "source": "paper PMC10882020",
  "about": "(Heliyon, 2024)",
  "origin": "cited, not measured here",
  "key": {"[1]": {"details": "orally administered at a dose of 100–150 mg/kg; ref 11 (Zheng et al.)"}, "[2]": {"tested_on": "ACE", "details": "read-out: ACE inhibitory activity IC50; ref 11 (Zheng et al.)"}},
  "data": [
    {"sequence": "RGQVIYVL", "values": [
      {"measurement": "antihypertensive effects", "setting": "[1]", "result": "significant antihypertensive effects"},
      {"measurement": "IC50", "setting": "[2]", "result": 38.2, "unit": "µM"}
    ]}
  ]
}
